Values quoted from earlier work as cited in US11382865B2, “Pharmaceutical preparation and method for its manufacture” (BAYER ANIMAL HEALTH GMBH, priority 2016, dated 2022).

Key:
[1] = tested on: parasitic worms (helminths); settings: veterinary parasiticide

CO/N=C1\C[C@]2(C[C@@H]3C[C@@H](C/C=C(\C)C[C@@H](C)/C=C/C=C4\CO[C@@H]5[C@H](O)C(C)=C[C@@H](C(=O)O3)[C@]45O)O2)O[C@H](/C(C)=C/C(C)C)[C@H]1C [Moxidectin]
Solubility in organic solvents (organic solvents): readily soluble
Solubility in water (water): practically insoluble
Dose at which active [1]: < 25 μg/kg body weight
